Source: ChEMBL document CHEMBL4138052, “Synthesis, characterization, solubilization, cytotoxicity and antioxidant activity of aminomethylated dihydroquercetin” (Medchemcomm, 2017)
pEC50, pIC50: −log10 of the molar value. In brackets after ≈: the same amount, converted by molar mass. Activity calls are given as the source filed them. The rule behind the calls is not given here.

Tests used:
HEK293 [1] = experiment: Cytotoxicity in HEK293 cells assessed as reduction in cell survival incubated for 48 hrs by MTT assay; assay type: cell-based; details: Homo sapiens, HEK293, 48 h
[2] = Thermal stability of the compound assessed as drug degradation by measuring compound weight loss at 30 to 100 degC; assay type: physicochemical; details: read-out: Drug degradation
[3] = Thermal stability of the compound assessed as drug degradation by measuring compound weight loss at 247 to 600 degC; assay type: physicochemical; details: read-out: Drug degradation
[4] = Solubility in water at pH 5.7 under nitrogen and sheltered from light condition incubated for 1 hr; assay type: physicochemical
[5] = Dissolution of the compound at 0.12 mg measured at 38 mins by UV spectrophotometry; assay type: physicochemical
[6] = Solubility in PBS using micronized compound measured at 60 mins; assay type: physicochemical
[7] = Safety index, ratio of EC50 for aristolochic acid to EC50 for test compound for cytotoxicity in HEK293 cells assessed as reduction in cell survival incubated for 48 hrs by MTT assay; assay type: cell-based; details: human, read-out: Ratio EC50
HEK293 [8] = experiment: Stimulation of cell growth in HEK293 cells assessed as increase in cell survival at 2 to 360 uM incubated for 48 hrs by MTT assay; assay type: functional, cell-based; details: Homo sapiens
HEK293 [9] = experiment: Stimulation of cell growth in HEK293 cells assessed as cell growth rate at 200 uM incubated for 48 hrs by MTT assay; assay type: functional; details: Homo sapiens, HEK293, 48 h; read-out: Activity
HeLa = experiment: Cytotoxicity in human HeLa cells assessed as reduction in cell survival incubated for 48 hrs by MTT assay; assay type: functional, cell-based
[10] = Antioxidant activity assessed as DPPH radical scavenging activity at 0.03 to 0.06 mM incubated for 30 mins; assay type: functional
[11] = Antioxidant activity assessed as DPPH radical scavenging activity at 0.09 mM incubated for 30 mins; assay type: functional
[12] = Antioxidant activity assessed as DPPH radical scavenging activity using micronized compound; assay type: functional
[13] = Antioxidant activity assessed as ABTS radical scavenging activity at 0.1 mM incubated for 6 mins by spectrophotometry; assay type: functional
[14] = Antioxidant activity assessed as ABTS radical scavenging activity incubated for 6 mins by spectrophotometry; assay type: functional
[15] = Reducing power of the compound assessed as reducing Fe3+ power at 0.15 to 1.2 mM using potassium ferricyanide in pH 6.6 KH2PO4-K2HPO4 buffer by UV spectrophotometry; assay type: physicochemical; details: pH 6.6, 1200 µM
[16] = Thermal stability of the compound assessed as drug degradation by measuring compound weight loss at 217 to 600 degC; assay type: physicochemical; details: read-out: Drug degradation
[17] = Ratio of solubility of DHQ to solubility of test compound in water at pH 5.7 under nitrogen and sheltered from light condition incubated for 1 hr; assay type: physicochemical; details: buffer, pH 5.7, 1 h
[18] = Dissolution of the compound at 0.12 mg measured at 360 mins by UV spectrophotometry; assay type: physicochemical; details: 6 h
HEK293 [19] = experiment: Potency index, ratio of cell growth stimulation activity of DHQ to cell growth stimulation activity of test compound for stimulation of cell growth in HEK293 cells assessed as cell growth rate at 200 uM incubated for 48 hrs by MTT assay; assay type: functional, Homo sapiens

COc1cccc2c1cc([N+](=O)[O-])c1c(C(=O)O)cc3c(c12)OCO3 [ARISTOLOCHIC ACID]
pEC50 (HEK293 [1]): 3.93

O=C1c2c(O)cc(O)cc2O[C@H](c2ccc(O)c(O)c2)[C@H]1O [(+)-TAXIFOLIN]
degraded [2]: 10.1% | degraded [3]: 43.4% | solubility at 1 h [4]: 1200 µg/mL (≈ 3940 µM) | Activity [5]: 13.8% | solubility at 1 h [6]: 20 µg/mL (≈ 65.7 µM) | pEC50 (HEK293 [1]): 3.17 | selectivity ratio at 48 h [7]: 5.6 | Activity (HEK293 [8]): Active | growth at 200 µM (HEK293 [9]): 22.6% | Activity (HeLa): Dose-dependent effect | pEC50 (HeLa): 3.90 | Activity [10]: Active | Activity [11]: 88.7% | IC50 [12]: 500 µg/mL (≈ 1640 µM) | Activity [13]: 84.9% | pIC50 [14]: 4.32 | Activity [15]: Dose-dependent effect

O=C1O[C@H]([C@@H](O)CO)C(O)=C1O [ASCORBIC ACID]
pIC50 [14]: 4.38 | Activity [15]: Dose-dependent effect

O=C(O)C1CCCN1Cc1c(O)c(CN2CCCC2C(=O)O)c2c(c1O)C(=O)[C@@H](O)[C@H](c1ccc(O)c(O)c1)O2 (some centres undefined)
degraded [16]: 64.8% | solubility at 1 h [4]: 19500 µg/mL (≈ 35000 µM) | Ratio [17]: 16 | Activity [5]: 87.1% | Activity [18]: 83.78% | solubility at 1 h [6]: 210 µg/mL (≈ 376 µM) | pEC50 (HEK293 [1]): 3.09 | selectivity ratio at 48 h [7]: 7 | Activity (HEK293 [8]): Active | growth at 200 µM (HEK293 [9]): 54.5% | Ratio (HEK293 [19]): 2.5 | Activity (HeLa): Dose-dependent effect | pEC50 (HeLa): 3.86 | Activity [10]: Active | Activity [11]: 85.7% | IC50 [12]: 22 µg/mL (≈ 39.4 µM) | Activity [13]: 98.3% | pIC50 [14]: 4.38 | Activity [15]: Dose-dependent effect
